In patent US7537765B2, “Inhibition of HIV-1 replication by disruption of the processing of the viral capsid-spacer peptide 1 protein” (priority 2003, dated 2009):
Where two headings read alike, the source gives them in different places.

What was measured:
[1] = system: HIV-1 infected MAGI cells; format: cell-based; conditions: HIV-1 infected MAGI cells
Excerpt: To distinguish the inhibitory activity of DSB against early and late replication targets, a multinuclear activation of a galactosidase indicator (MAGI) assay was used. In this assay, the targets are HeLa cells stably expressing CD4, CXCR4, CCR5 and a reporter construct consisting of the—galactosidase gene (modified to localize to the nucleus) driven by a truncated HIV-1 LTR. Infection of these cells results in expression of Tat that drives activation of the β-galactosidase reporter gene. Expression of β-galactosidase in infected cells is detected using the chromogenic substrate X-gal.

[2] = system: primary Clade B HIV-1 isolates; assay: Virus inhibition assay, primary HIV-1 isolates in PBMC, p24 endpoint; format: cell-based
Procedure: (§1) A robust virus inhibition assay was used to evaluate the anti-viral activity of DSB against primary HIV-1 isolates propagated in PMBC. Briefly, serial dilutions of DSB were made in medium into 96-well tissue culture plates. 25-250 TCID50 of virus and 5×10^5 PHA-stimulated PBMCs were added to each well. On days 1, 3 and 5 post-infection, media was removed from each well and replaced with fresh media containing DSB at the appropriate concentration. On day 7 post-infection, culture supernatant was removed from each well for p24 detection of virus replication and 50% inhibitory concentrations (IC50) were calculated by standard methods.

SIVmac251 = assay: Gag processing (western blot) in chronically infected H9/SIVmac251 cells; format: cell-based, SIV
Procedure: FIG. 2. […] Gag proteins were visualized using HIV-Ig (HIV-1) or monkey anti-SIVmac251 serum (HIV-2 and SIV; NIH AIDS Research and Reference Reagent Program).
In order to better define DSB's mechanism of action, a detailed examination was undertaken of the virus produced from HIV-1-infected cell lines treated with DSB. Briefly, H9 cells chronically infected with the HIV-1IIIB isolate were treated with DSB at 1 μg/mL for a period of 48 hrs. Indinavir was used as a control. At the 48 hr time-point, spent media was removed and fresh media containing compound was added. At 24, 48 and 72 hrs post fresh compound addition, both cells and supernatant were recovered for analysis. The level of virus in the culture supernatant was determined and western blots were used to characterize viral protein production in both cell-associated and cell-free virus. […] This defect took the form of an additional band in the western blots corresponding to p25 (FIG. 2). This p25 band results from the incomplete processing of the capsid CA-SP1 precursor. […] As discussed above, mutations at the p25 to p24 cleavage site that prevent processing are associated with defects in viral maturation and infectivity (Wiegers K. et al., J. Virol. 72:2846-54 (1998)).

[3] = system: drug resistant HIV-1 isolates; assay: Drug resistant HIV-1 isolates in fresh PBMC, p24 endpoint; format: cell-based; conditions: read-out: IC50
Procedure: as §1, with “concentration.” for “concentration. On day 7 post-infection, culture supernatant was removed from each well for p24 detection of virus replication and 50% inhibitory concentrations (IC50) were calculated by standard methods.”
The activity of DSB was tested against a panel of HIV-1 isolates resistant to approved drugs. These viruses were obtained from the NIH AIDS Research and Reference Reagent Program. Assays were performed using virus propagated in PBMCs with a p24 endpoint (above), or using cell line targets (MT-2 cells) and a cell killing endpoint. The MT-2 assay format was as follows. Serial dilutions of DSB, or each approved drug, were prepared in 96 well plates. To each sample well was added media containing MT-2 cells at 3×10^5 cells/mL and virus inoculum at a concentration necessary to result in 80% killing of the cell targets at 5 days post-infection (PI). On day 5 post-infection, virus-induced cell killing was determined by the XTT method and the inhibitory activity of the compound was determined.

PHA-stimulated PBMC = assay: Toxicity in PHA-stimulated PBMC, XTT method; format: cell-based; conditions: 7 days
Procedure: Toxicity of DSB was analyzed by incubating with PHA-stimulated PBMC for 7 days at a range of concentrations, then determining cell viability using the XTT method. The 50% cytotoxic concentration was >30 μM, corresponding to an in vitro therapeutic index of approximately 5000.

## C=C(C)[C@@H]1CC[C@]2(C(=O)O)CC[C@]3(C)[C@H](CC[C@@H]4[C@@]5(C)CC[C@H](OC(=O)CC(C)(C)C(=O)O)C(C)(C)[C@@H]5CC[C@]43C)[C@@H]12 [DSB, 3-O-(3′,3′-dimethylsuccinyl)betulinic acid]
[1]
  % Decrease (β-galactosidase expression): 12%
[2]; isolate 92HT599, co-receptor X4, PBMC, p24 day 7, read-out: IC50
  IC50: 9.8 nM
[2]; isolate 92US723, co-receptor R5/X4, PBMC, p24 day 7, read-out: IC50
  IC50: 4.6 nM
[2]; isolate 3401N*, co-receptor R5/X4, PBMC, p24 day 7, read-out: IC50
  IC50: 12 nM
[2]; isolate 19101N*, co-receptor R5, PBMC, p24 day 7, read-out: IC50
  IC50: 3.8 nM
[2]; isolate 22101N*, co-receptor R5/X4, PBMC, p24 day 7, read-out: IC50
  IC50: 2.6 nM
[2]; isolate BZ167, co-receptor X4, PBMC, p24 day 7, read-out: IC50
  IC50: 4 nM
[2]; isolate US1, co-receptor R5, PBMC, p24 day 7, read-out: IC50
  IC50: 5.6 nM
[2]; mean over the panel of primary isolates, read-out: IC50, Mean
  IC50: 6.1 nM
SIVmac251; SIV
  antiviral activity: lack of antiviral activity
SIVmac251; SIV chronically infected cell line, 1 μg/mL
  Gag processing: normal Gag processing
[3]; isolate 1, NRTI-resistant, K70R T215Y/F, R5/X4
  IC50: 4.4 nM
[3]; isolate 2, NRTI-resistant, K70R T215Y/F, R5/X4
  IC50: 4.2 nM
[3]; isolate 5, Protease-resistant, V82A, X4
  IC50: 5.6 nM
[3]; isolate 6, Protease-resistant, I84V, X4
  IC50: 5.5 nM
[3]; isolate 7, Protease-resistant, L10R/M46I/L63P/V82T/I84V, X4
  IC50: 12.9 nM
PHA-stimulated PBMC
  50% cytotoxic concentration: > 30 µM
